Measurements reported in ChEMBL document CHEMBL1255318, “Effect of low-dose ritonavir on the pharmacokinetics of the CXCR4 antagonist AMD070 in healthy volunteers” (Antimicrob Agents Chemother, 2008).

Tests used:
Type in all cases: ADME, organism-based
[1] = Tmax in […] at […], po administered as single dose measured on day 3 by HPLC in presence of […]; settings: human, in vivo
[2] = Apparent volume of distribution during terminal phase in […] at […], po administered as single dose measured on day 1 by HPLC; set-up: route oral; settings: human, in vivo, read-out: Vz/F
[3] = Cmax in […] at […], po administered as single dose measured on day 3 by HPLC in presence of […]; set-up: route oral; settings: human, in vivo
[4] = Cmax in […] at […], po administered as single dose measured on day 1 by HPLC; set-up: route oral; settings: human, in vivo
[5] = AUC (0 to infinity) in […] at […], po administered as single dose measured on day 17 by HPLC in presence of 29 doses of […]; set-up: route oral, time infinity; settings: human, plasma
[6] = Cmax in […] at […], po administered as single dose measured on day 17 by HPLC in presence of 29 doses of […]; set-up: route oral; settings: human, in vivo
[7] = Apparent volume of distribution during terminal phase in […] at […], po administered as single dose measured on day 17 by HPLC in presence of 29 doses of […]; settings: human, in vivo, read-out: Vz/F
[8] = Apparent volume of distribution during terminal phase in […] at […], po administered as single dose measured on day 3 by HPLC in presence of […]; settings: human, in vivo, read-out: Vz/F
[9] = Oral bio availability in rat in presence of ritonavir; settings: in vivo
[10] = AUC (0 to infinity) in […] at […], po administered as single dose measured on day 1 by HPLC; set-up: route oral, time infinity; settings: human, plasma
[11] = AUC in rat in presence of ritonavir; settings: plasma
[12] = Cmax in rat in presence of ritonavir; settings: in vivo
[13] = Tmax in […] at […], po administered as single dose measured on day 1 by HPLC; set-up: route oral; settings: human, in vivo
[14] = Tmax in […] at […], po administered as single dose measured on day 17 by HPLC in presence of 29 doses of […]; settings: human, in vivo
[15] = AUC (0 to infinity) in […] at […], po administered as single dose measured on day 3 by HPLC in presence of […]; set-up: time infinity, route oral; settings: human, plasma

- Tmax [1]: 2 h
- Vd/F [2]: 4200 L
- Cmax [3]: 362 ng/mL
- Cmax [4]: 256 ng/mL
- AUC(0-inf) [5]: 1200 ng·h/mL
- Cmax [6]: 333 ng/mL
- Vd/F [7]: 3930 L
- Vd/F [8]: 3450 L
- bioavailability [9]: 66%
- AUC(0-inf) [10]: 934 ng·h/mL
- AUC [11]: 58 ng·h/mL
- Cmax [12]: 158 ng/mL
- Tmax [13]: 3 h
- Tmax [14]: 1 h
- AUC(0-inf) [15]: 1640 ng·h/mL
Compound: NCCCCN(Cc1nc2ccccc2[nH]1)[C@H]1CCCc2cccnc21 [MAVORIXAFOR]
